Measured values taken from PMC6270420, “Antibacterial Activity of Salicylanilide 4-(Trifluoromethyl)benzoates” (Molecules, 2013).
≈ marks a conversion by molar mass, not a printed value. Read-outs that look alike come from different tables or passages of the source.

Legend:
Mtb. 9449/2006 = test: microbe, parasite or virus in culture; format: cell-based; conditions: Mycobacterium tuberculosis, read-out: MIC Mtb. 9449/2006
Mtb. Praha 1 = test: microbe, parasite or virus in culture; format: cell-based; conditions: Mycobacterium tuberculosis, read-out: MIC Mtb. Praha 1
[1] = tested on: M. kansasii 6509/96 (clinically isolated strain); test: Antimycobacterial MIC micromethod; format: cell-based; conditions: Mycobacterium kansasii, read-out: MIC M. kansasii 6509/96
[2] = tested on: Mycobacterium tuberculosis 331/88 (H37Rv); test: Antimycobacterial MIC micromethod, Šula's medium; format: cell-based
Mtb. 53/2009 = test: microbe, parasite or virus in culture; format: cell-based; conditions: Mycobacterium tuberculosis, read-out: MIC Mtb. 53/2009
Mtb. 234/2005 = test: microbe, parasite or virus in culture; format: cell-based; conditions: Mycobacterium tuberculosis, read-out: MIC Mtb. 234/2005
[3] = tested on: Mycobacterium kansasii 235/80; test: Antimycobacterial MIC micromethod; format: cell-based; conditions: read-out: MIC M. kansasii 235/80
Mtb. Praha 131 (XDR-TB) = test: microbe, parasite or virus in culture; format: cell-based; conditions: Mycobacterium tuberculosis, read-out: MIC Mtb. Praha 131 (XDR-TB)
Mtb. 7357/1988 = test: microbe, parasite or virus in culture; format: cell-based; conditions: Mycobacterium tuberculosis, read-out: MIC Mtb. 7357/1988
[4] = biological target: T1, mycobacterial isocitrate lyase (ICL1, Rv0467) (Mycobacterium tuberculosis, UniProt P9WKK7); test: Isocitrate lyase inhibition assay (ICL1); format: biochemical, Mycobacterium tuberculosis H37Rv; conditions: 10 μmol/L; read-out: % ICL inhibition at 10 μmol/L (± standard deviation)
T1 construct: His tag (from pET-28b(+)); made in house; host or cells: E. coli BL21(DE3), pET-28b(+) plasmid
T1 sequence (P9WKK7 1-428): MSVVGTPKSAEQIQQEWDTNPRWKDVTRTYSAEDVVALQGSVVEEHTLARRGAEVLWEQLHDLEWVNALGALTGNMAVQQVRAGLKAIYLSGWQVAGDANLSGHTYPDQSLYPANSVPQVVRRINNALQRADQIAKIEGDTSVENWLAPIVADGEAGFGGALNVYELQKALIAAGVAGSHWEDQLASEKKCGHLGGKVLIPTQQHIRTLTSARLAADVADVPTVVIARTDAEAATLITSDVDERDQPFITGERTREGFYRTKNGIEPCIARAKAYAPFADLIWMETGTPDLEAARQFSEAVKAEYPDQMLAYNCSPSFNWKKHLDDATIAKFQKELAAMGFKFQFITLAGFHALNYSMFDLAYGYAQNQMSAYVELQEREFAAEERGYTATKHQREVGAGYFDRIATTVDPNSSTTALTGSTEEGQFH

[5] = tested on: Mycobacterium avium 330/88; test: Antimycobacterial MIC micromethod; format: cell-based
[6] = 336 h, 14 d, read-out: MIC Mtb. 331/88
[7] = 504 h, 21 d, read-out: MIC Mtb. 331/88

| Structure (SMILES) | MIC (Mtb. 9449/2006; 336 h) [µM] | MIC (Mtb. 9449/2006; 504 h) [µM] | MIC (Mtb. Praha 1; 336 h) [µM] | MIC (Mtb. Praha 1; 504 h) [µM] | MIC ([1]; 168 h, 7 d) [µM] | MIC ([1]; 336 h, 14 d) [µM] | MIC ([1]; 504 h, 21 d) [µM] | MIC [2, 6] [µM] | MIC [2, 7] [µM] | MIC (Mtb. 53/2009; 336 h) [µM] | MIC (Mtb. 53/2009; 504 h) [µM] | MIC (Mtb. 234/2005; 336 h) [µM] | MIC (Mtb. 234/2005; 504 h) [µM] | MIC ([3]; 235/80, 168 h, 7 d) [µM] | MIC ([3]; 235/80, 336 h, 14 d) [µM] | MIC ([3]; 235/80, 504 h, 21 d) [µM] | MIC (Mtb. Praha 131 (XDR-TB); 336 h) [µM] | inhibition at 10 µM [4] [%] | MIC ([5]; 330/88, 336 h, 14 d) [µM] | MIC ([5]; 330/88, 504 h, 21 d) [µM] | further results |
| --- | --- | --- | --- | --- | --- | --- | --- | --- | --- | --- | --- | --- | --- | --- | --- | --- | --- | --- | --- | --- | --- |
| O=C(Oc1ccc(Cl)cc1C(=O)Nc1cccc(Cl)c1)c1ccc(C(F)(F)F)cc1 [1a] | 4 (≈ 1.82 µg/mL) | 4 (≈ 1.82 µg/mL) | 4 (≈ 1.82 µg/mL) | 4 (≈ 1.82 µg/mL) | 2 (≈ 0.908 µg/mL) | 8 (≈ 3.63 µg/mL) | 8 (≈ 3.63 µg/mL) | 2 (≈ 0.908 µg/mL) | 4 (≈ 1.82 µg/mL) | 4 (≈ 1.82 µg/mL) | 4 (≈ 1.82 µg/mL) | 4 (≈ 1.82 µg/mL) | 4 (≈ 1.82 µg/mL) | 0.5 (≈ 0.227 µg/mL) | 2 (≈ 0.908 µg/mL) | 4 (≈ 1.82 µg/mL) | 4 (≈ 1.82 µg/mL) | 18 ± 1.9 | 8 (≈ 3.63 µg/mL) | 16 (≈ 7.27 µg/mL) | MIC (Mtb. Praha 131 (XDR-TB); 504 h): 4 µM (≈ 1.82 µg/mL); MIC (Mtb. 7357/1988; 336 h): 4 µM (≈ 1.82 µg/mL); MIC (Mtb. 7357/1988; 504 h): 4 µM (≈ 1.82 µg/mL) |
| O=C(Oc1ccc(Cl)cc1C(=O)Nc1ccc(Cl)cc1)c1ccc(C(F)(F)F)cc1 [1c] | 2 (≈ 0.908 µg/mL) | 2 (≈ 0.908 µg/mL) | 2 (≈ 0.908 µg/mL) | 2 (≈ 0.908 µg/mL) | 1 (≈ 0.454 µg/mL) | 4 (≈ 1.82 µg/mL) | 4 (≈ 1.82 µg/mL) | 2 (≈ 0.908 µg/mL) | 2 (≈ 0.908 µg/mL) | 4 (≈ 1.82 µg/mL) | 4 (≈ 1.82 µg/mL) | 4 (≈ 1.82 µg/mL) | 4 (≈ 1.82 µg/mL) | 1 (≈ 0.454 µg/mL) | 2 (≈ 0.908 µg/mL) | 2 (≈ 0.908 µg/mL) | 2 (≈ 0.908 µg/mL) | 12 ± 2.7 | 4 (≈ 1.82 µg/mL) | 8 (≈ 3.63 µg/mL) | MIC (Mtb. Praha 131 (XDR-TB); 504 h): 2 µM (≈ 0.908 µg/mL); MIC (Mtb. 7357/1988; 336 h): 2 µM (≈ 0.908 µg/mL); MIC (Mtb. 7357/1988; 504 h): 2 µM (≈ 0.908 µg/mL) |
| O=C(Oc1cc(Cl)ccc1C(=O)Nc1ccc(Cl)cc1)c1ccc(C(F)(F)F)cc1 [1d] | 4 (≈ 1.82 µg/mL) | 4 (≈ 1.82 µg/mL) | 2 (≈ 0.908 µg/mL) | 4 (≈ 1.82 µg/mL) | 1 (≈ 0.454 µg/mL) | 4 (≈ 1.82 µg/mL) | 4 (≈ 1.82 µg/mL) | 4 (≈ 1.82 µg/mL) | 4 (≈ 1.82 µg/mL) | 4 (≈ 1.82 µg/mL) | 4 (≈ 1.82 µg/mL) | 4 (≈ 1.82 µg/mL) | 4 (≈ 1.82 µg/mL) | 1 (≈ 0.454 µg/mL) | 4 (≈ 1.82 µg/mL) | 4 (≈ 1.82 µg/mL) | 2 (≈ 0.908 µg/mL) | 12 ± 2.3 | 4 (≈ 1.82 µg/mL) | 8 (≈ 3.63 µg/mL) | MIC (Mtb. Praha 131 (XDR-TB); 504 h): 4 µM (≈ 1.82 µg/mL); MIC (Mtb. 7357/1988; 336 h): 4 µM (≈ 1.82 µg/mL); MIC (Mtb. 7357/1988; 504 h): 4 µM (≈ 1.82 µg/mL) |
| O=C(Oc1cc(Cl)ccc1C(=O)Nc1cccc(F)c1)c1ccc(C(F)(F)F)cc1 [1l] | – | – | – | – | 8 (≈ 3.5 µg/mL) | 8 (≈ 3.5 µg/mL) | 16 (≈ 7 µg/mL) | 4 (≈ 1.75 µg/mL) | 4 (≈ 1.75 µg/mL) | – | – | – | – | 4 (≈ 1.75 µg/mL) | 8 (≈ 3.5 µg/mL) | 8 (≈ 3.5 µg/mL) | – | ≥ 20 | 8 (≈ 3.5 µg/mL) | 16 (≈ 7 µg/mL) | – |
| O=C(Oc1cc(Cl)ccc1C(=O)Nc1ccc(F)cc1)c1ccc(C(F)(F)F)cc1 [1n] | – | – | – | – | 4 (≈ 1.75 µg/mL) | 8 (≈ 3.5 µg/mL) | 8 (≈ 3.5 µg/mL) | 4 (≈ 1.75 µg/mL) | 8 (≈ 3.5 µg/mL) | – | – | – | – | 2 (≈ 0.876 µg/mL) | 8 (≈ 3.5 µg/mL) | 8 (≈ 3.5 µg/mL) | – | 17 ± 1.3 | 4 (≈ 1.75 µg/mL) | 4 (≈ 1.75 µg/mL) | – |
| O=C(Oc1ccc(Cl)cc1C(=O)Nc1cccc(C(F)(F)F)c1)c1ccc(C(F)(F)F)cc1 [1q] | – | – | – | – | 1 (≈ 0.488 µg/mL) | 4 (≈ 1.95 µg/mL) | 8 (≈ 3.9 µg/mL) | 2 (≈ 0.976 µg/mL) | 2 (≈ 0.976 µg/mL) | – | – | – | – | 2 (≈ 0.976 µg/mL) | 4 (≈ 1.95 µg/mL) | 8 (≈ 3.9 µg/mL) | – | 19 ± 0.5 | 4 (≈ 1.95 µg/mL) | 16 (≈ 7.8 µg/mL) | – |
| O=C(O)CC[N+](=O)[O-] [3-NP, 3-nitropropionic acid, reference compound] | – | – | – | – | – | – | – | – | – | – | – | – | – | – | – | – | – | 25 ± 4.1 | – | – | – |
| NNC(=O)c1ccncc1 [INH, isoniazid, reference compound] | – | – | – | – | – | – | – | 0.5 to 1 (≈ 0.0686 to 0.137 µg/mL) | 0.5 to 1 (≈ 0.0686 to 0.137 µg/mL) | – | – | – | – | – | – | – | – | 0 | ≥ 250 | ≥ 250 | MIC ([1]; 168 h): 2 to 4 µM (≈ 0.274 to 0.549 µg/mL); MIC ([1]; 336 h): 4 to 8 µM (≈ 0.549 to 1.1 µg/mL); MIC ([1]; 504 h): 8 to 16 µM (≈ 1.1 to 2.19 µg/mL); MIC ([2]; time not stated, read-out: MIC against M. tuberculosis): 1 µM (≈ 0.137 µg/mL); MIC ([3]; 235/80, 168 h): > 250 µM; MIC ([3]; 235/80, 336 h): > 250 µM; MIC ([3]; 235/80, 504 h): > 250 µM |
| Nc1ccc(C(=O)O)c(O)c1 [PAS, p-aminosalicylic acid, reference compound] | – | – | – | – | – | – | – | 62.5 (≈ 9.57 µg/mL) | 62.5 (≈ 9.57 µg/mL) | – | – | – | – | – | – | – | – | – | 32 (≈ 4.9 µg/mL) | 125 (≈ 19.1 µg/mL) | MIC ([1]; 168 h): 32 µM (≈ 4.9 µg/mL); MIC ([1]; 336 h): 125 µM (≈ 19.1 µg/mL); MIC ([1]; 504 h): 500 µM (≈ 76.6 µg/mL); MIC ([3]; 235/80, 168 h): 125 µM (≈ 19.1 µg/mL); MIC ([3]; 235/80, 336 h): 1000 µM (≈ 153 µg/mL); MIC ([3]; 235/80, 504 h): > 1000 µM |
